Laboratory results from patent US6544931B1, “Substituted heteroaryloxyacetanilides and their use as herbicides” (Bayer Aktiengesellschaft, priority 1999, dated 2003).
Where two headings read alike, the source gives them in different places.

Tests used:
weeds [1] = assay: Post-emergence test; format: in vivo; conditions: result in words
Description: (§1) Solvent: 5 parts by weight of acetone
(§2) Emulsifier: 1 part by weight of alkylaryl polyglycol ether
(§3) To produce a suitable preparation of active compound, 1 part by weight of active compound is mixed with the stated amount of solvent, the stated amount of emulsifier is added and the concentrate is diluted with water to the desired concentration.
(§4) Test plants which have a height of 5 to 15 cm are sprayed with the preparation of active compound such that the particular amounts of active compound desired are applied per unit area. The concentration of the spray liquor is chosen so that the particular amounts of active compound desired are applied in 1000 l of water/ha.
(§5) After three weeks, the degree of damage to the plants is rated in % damage in comparison to the development of the untreated control.
(§6) 0%=no effect (like untreated control)

Setaria [2] = assay: Post-emergence test/greenhouse; format: in vivo; conditions: after three weeks
Description: as §1, §2, §3, §4, §5, §6

Ipomoea = assay: Post-emergence test/greenhouse; format: in vivo; conditions: 500 g of ai/ha, after three weeks
Description: as §1, §2, §3, §4, §5, §6

Avena fatua [3] = assay: Post-emergence test/greenhouse; format: in vivo; conditions: 500 g of ai/ha, after three weeks
Description: as §1, §2, §3, §4, §5, §6

Galium = assay: Post-emergence test/greenhouse; format: in vivo; conditions: after three weeks
Description: as §1, §2, §3, §4, §5, §6

Setaria [4] = assay: Pre-emergence test/greenhouse; format: in vivo; conditions: after three weeks
Description: as §1, §2, §3
(§7) Seeds of the test plants are sown in normal soil. After about 24 hours, the soil is sprayed with the preparation of active compound such that the particular amount of active compound desired is applied per unit area. The concentration of the spray liquor is chosen so that the particular amount of active compound desired is applied in 1000 litre of water per hectare.
(§8) After three weeks, the degree of damage to the plants is rated in % damage in comparison to the development of the untreated controls.
as §6

Maize = assay: Pre-emergence test/greenhouse; format: in vivo; conditions: after three weeks, crop plant
Description: as §1, §2, §3, §7, §8, §6

Avena fatua [5] = assay: Pre-emergence test/greenhouse; format: in vivo; conditions: 500 g of ai/ha, after three weeks
Description: as §1, §2, §3, §7, §8, §6

Alopecurus = assay: Pre-emergence test/greenhouse; format: in vivo; conditions: 500 g of ai/ha, after three weeks
Description: as §1, §2, §3, §7, §8, §6

Echinochloa = assay: Pre-emergence test/greenhouse; format: in vivo; conditions: 500 g of ai/ha, after three weeks
Description: as §1, §2, §3, §7, §8, §6

weeds [6] = assay: Pre-emergence test; format: in vivo; conditions: result in words
Description: as §1, §2, §3, §7, §8, §6

Sinapis [7] = assay: Post-emergence test/greenhouse; format: in vivo; conditions: after three weeks
Description: as §1, §2, §3, §4, §5, §6

Amaranthus [8] = assay: Post-emergence test/greenhouse; format: in vivo; conditions: after three weeks
Description: as §1, §2, §3, §4, §5, §6

Lolium = assay: Pre-emergence test/greenhouse; format: in vivo; conditions: 500 g of ai/ha, after three weeks
Description: as §1, §2, §3, §7, §8, §6

Cotton = assay: Pre-emergence test/greenhouse; format: in vivo; conditions: 500 g of ai/ha, after three weeks, crop plant
Description: as §1, §2, §3, §7, §8, §6

Amaranthus [9] = assay: Pre-emergence test/greenhouse; format: in vivo; conditions: after three weeks
Description: as §1, §2, §3, §7, §8, §6

Eriochloa = assay: Pre-emergence test/greenhouse; format: in vivo; conditions: 500 g of ai/ha, after three weeks
Description: as §1, §2, §3, §7, §8, §6

[10] = logP by HPLC on reversed-phase column (EEC directive 79/831 Annex V.A8); format: physicochemical
Description: The lopP values given in Table 1 were determined in accordance with EEC directive 79/831 Annex V.A8 by HPLC (High Performance Liquid Chromatography) on a reversed-phase column (C 18). Temperature: 43° C. (a) Mobile phases for the determination in the acidic range: 0.1% aqueous phosphoric acid, acetonitrile; linear gradient of 10% acetonitrile to 90% acetonitrile—corresponding data in Table 1 are labelled a). Calibration was carried out using unbranched alkan-2-ones (with 3 to 16 carbon atoms) whose logP values are known (determination of the logP values by the retention times using linear interpolation between two successive alkanones).

Veronica = assay: Pre-emergence test/greenhouse; format: in vivo; conditions: 125 g of ai/ha, after three weeks
Description: as §1, §2, §3, §7, §8, §6

Matricaria = assay: Pre-emergence test/greenhouse; format: in vivo; conditions: 125 g of ai/ha, after three weeks
Description: as §1, §2, §3, §7, §8, §6

Sinapis [11] = assay: Pre-emergence test/greenhouse; format: in vivo; conditions: 500 g of ai/ha, after three weeks
Description: as §1, §2, §3, §7, §8, §6

Digitaria = assay: Pre-emergence test/greenhouse; format: in vivo; conditions: 500 g of ai/ha, after three weeks
Description: as §1, §2, §3, §7, §8, §6

Wheat = assay: Pre-emergence test/greenhouse; format: in vivo; conditions: 500 g of ai/ha, after three weeks, crop plant
Description: as §1, §2, §3, §7, §8, §6

Sugar beet = assay: Pre-emergence test/greenhouse; format: in vivo; conditions: 500 g of ai/ha, after three weeks, crop plant
Description: as §1, §2, §3, §7, §8, §6

[12] = reversed-phase HPLC column (C 18); a) acidic range: 0.1% aqueous phosphoric acid, acetonitrile gradient, HPLC C 18, 43° C., read-out: logP

In the case of CC(C)(C)N(C(=O)COc1nnc(C(F)(F)F)s1)c1ccc(Cl)cc1 [Example 1, N-(t-butyl)-N-(4-chlorophenyl)-2-(5-trifluoromethyl-1,3,4-thiadiazol-2-yl-oxy)-acetamide], the melting point is reported as 82 °C, the activity against weeds (weeds [1]) is reported as “strong activity” and the “degree of damage, Setaria” value (Setaria [2]; 500 g of ai/ha) is reported as 90%. For the same compound, the “degree of damage, Ipomoea” value (Ipomoea) was 90%, the “degree of damage, Avena fatua” value (Avena fatua [3]) was 80% and the “degree of damage, Galium” value (Galium; 500 g of ai/ha) was 90%. For the same compound, the “degree of damage, Setaria” value (Setaria [4]; 500 g of ai/ha) was 100%, the “degree of damage, Maize” value (Maize; 500 g of ai/ha) was 0% and the “degree of damage, Avena fatua” value (Avena fatua [5]) was 80%. The “degree of damage, Alopecurus” value (Alopecurus) was 80%, the “degree of damage, Echinochloa” value (Echinochloa) was 95% and the activity against weeds (weeds [6]) was “strong activity”.
For C#CCN(C(=O)COc1nnc(C(F)(F)F)s1)c1cccc(C(F)(F)F)c1 [Example 3], the activity against weeds (weeds [1]) was “strong activity”, the “degree of damage, Sinapis” value (Sinapis [7]; 2000 g of ai/ha) was 100% and the “degree of damage, Setaria” value (Setaria [2]; 2000 g of ai/ha) was 95%. The “degree of damage, Amaranthus” value (Amaranthus [8]; 2000 g of ai/ha) was 100%, the “degree of damage, Galium” value (Galium; 2000 g of ai/ha) was 90% and the “degree of damage, Lolium” value (Lolium) was 100%. The “degree of damage, Cotton” value (Cotton) was 0%, the “degree of damage, Setaria” value (Setaria [4]; 500 g of ai/ha) was 100% and the “degree of damage, Amaranthus” value (Amaranthus [9]; 500 g of ai/ha) was 100%. The “degree of damage, Maize” value (Maize; 500 g of ai/ha) was 0%, the “degree of damage, Eriochloa” value (Eriochloa) was 95% and the activity against weeds (weeds [6]) was “strong activity”. For the same compound, the chromatographic logP [10, 12] was 3.45.
With C#CCN(C(=O)COc1nnc(C(F)(F)F)s1)c1ccc(F)cc1 [Example 4] the activity against weeds (weeds [1]) was “strong activity”, the “degree of damage, Sinapis” value (Sinapis [7]; 2000 g of ai/ha) was 95% and the “degree of damage, Setaria” value (Setaria [2]; 2000 g of ai/ha) was 90%. For the same compound, the “degree of damage, Amaranthus” value (Amaranthus [8]; 2000 g of ai/ha) was 95%, the “degree of damage, Galium” value (Galium; 2000 g of ai/ha) was 90% and the “degree of damage, Setaria” value (Setaria [4]; 125 g of ai/ha) was 100%. For the same compound, the “degree of damage, Amaranthus” value (Amaranthus [9]; 125 g of ai/ha) was 100%, the “degree of damage, Maize” value (Maize; 125 g of ai/ha) was 0% and the “degree of damage, Veronica” value (Veronica) was 100%. For the same compound, the “degree of damage, Matricaria” value (Matricaria) was 100%, the activity against weeds (weeds [6]) was “strong activity” and the chromatographic logP [10, 12] was 2.97.
With C#CCN(C(=O)COc1nc2ccccc2o1)c1ccc(F)cc1 [Example 6] the melting point was 138 °C, the activity against weeds (weeds [1]) was “strong activity” and the “degree of damage, Setaria” value (Setaria [2]; 500 g of ai/ha) was 90%. The “degree of damage, Amaranthus” value (Amaranthus [8]; 500 g of ai/ha) was 90%, the “degree of damage, Galium” value (Galium; 500 g of ai/ha) was 90% and the “degree of damage, Sinapis” value (Sinapis [11]) was 95%. The “degree of damage, Setaria” value (Setaria [4]; 500 g of ai/ha) was 100%, the “degree of damage, Amaranthus” value (Amaranthus [9]; 500 g of ai/ha) was 100% and the activity against weeds (weeds [6]) was “strong activity”.
With CC(C)(C)N(C(=O)COc1nnc(C(F)(F)F)s1)c1ccc(F)cc1 [Example 7] the melting point was 85 °C, the activity against weeds (weeds [1]) was “strong activity” and the “degree of damage, Sinapis” value (Sinapis [7]; 1000 g of ai/ha) was 80%. For the same compound, the “degree of damage, Setaria” value (Setaria [2]; 1000 g of ai/ha) was 80%, the “degree of damage, Amaranthus” value (Amaranthus [8]; 1000 g of ai/ha) was 80% and the “degree of damage, Galium” value (Galium; 1000 g of ai/ha) was 95%. The “degree of damage, Digitaria” value (Digitaria) was 100%, the “degree of damage, Setaria” value (Setaria [4]; 500 g of ai/ha) was 100% and the “degree of damage, Amaranthus” value (Amaranthus [9]; 500 g of ai/ha) was 95%. For the same compound, the “degree of damage, Wheat” value (Wheat) was 0%, the “degree of damage, Eriochloa” value (Eriochloa) was 100% and the “degree of damage, Alopecurus” value (Alopecurus) was 90%. The activity against weeds (weeds [6]) was “strong activity”.
In the case of CC(C)(C)N(C(=O)COc1nnc(C(F)(F)F)s1)c1cccc(Cl)c1 [Example 9], the melting point is reported as 84 °C, the activity against weeds (weeds [1]) is reported as “strong activity” and the “degree of damage, Setaria” value (Setaria [2]; 500 g of ai/ha) is reported as 70%. For the same compound, the “degree of damage, Ipomoea” value (Ipomoea) was 90%, the “degree of damage, Galium” value (Galium; 500 g of ai/ha) was 90% and the “degree of damage, Sugar beet” value (Sugar beet) was 0%. For the same compound, the “degree of damage, Setaria” value (Setaria [4]; 500 g of ai/ha) was 100%, the “degree of damage, Maize” value (Maize; 500 g of ai/ha) was 0% and the “degree of damage, Echinochloa” value (Echinochloa) was 95%. The activity against weeds (weeds [6]) was “strong activity”.
CC(C)(C)N(C(=O)CO)c1ccc(Cl)cc1 [III-1, N-(t-butyl)-N-(4-chlorophenyl)-2-hydroxyacetamide] gave a chromatographic logP ([10]; reversed-phase HPLC column (C 18), pH=2.3, read-out: logP (at pH=2.3)) of 2.54.
With C#CCN(C(=O)CO)c1ccc(F)cc1 [III-2, N-(4-fluorophenyl)-N-(2-propinyl)-2-hydroxyacetamide] the melting point was 57 °C.
CC(C)(C)N(C(=O)CCl)c1ccc(Cl)cc1 [IV-1, N-(t-butyl)-N-(4-chlorophenyl)-2-chloroacetamide] gave a chromatographic logP ([10]; reversed-phase HPLC column (C 18), pH=2.5, read-out: logP (at pH=2.5)) of 3.34.
For C#CCN(C(=O)CCl)c1ccc(F)cc1 [IV-2, N-(4-fluorophenyl)-N-(2-propinyl)-2-chloroacetamide], the logP [10] was “logP = 2.69^a)”.
